The values that follow come from patent US6090828A, “5-aryleheteroarylalkyl-1,3,5-trisubstituted-1,2,4-triazole compounds for treatment of circulatory disorders” (priority 1997, dated 2000).

The target in assay [1] is T1, rabbit aortic rings (Oryctolagus cuniculus, UniProt P34976).
T1 construct: The thoracic aorta was removed, cleaned of adherent fat and connective tissue and then cut into 3-mm ring segments; from tissue; host or cells: rabbit thoracic aorta rings, endothelium removed
T1 sequence (P34976 1-359): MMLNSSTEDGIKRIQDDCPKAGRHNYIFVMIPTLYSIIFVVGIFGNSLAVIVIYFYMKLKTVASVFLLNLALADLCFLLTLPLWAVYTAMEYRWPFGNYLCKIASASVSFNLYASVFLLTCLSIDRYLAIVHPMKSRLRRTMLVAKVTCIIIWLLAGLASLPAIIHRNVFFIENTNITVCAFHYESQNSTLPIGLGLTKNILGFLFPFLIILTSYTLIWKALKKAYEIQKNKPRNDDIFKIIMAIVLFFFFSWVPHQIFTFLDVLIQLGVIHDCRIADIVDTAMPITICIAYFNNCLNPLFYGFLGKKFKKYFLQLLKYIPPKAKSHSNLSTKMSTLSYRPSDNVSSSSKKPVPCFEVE
As to the kind of experiment: Assay B: In Vitro Vascular Smooth Muscle Response for AII. Details: species or system rabbit (male New Zealand white). To be noted: rabbit aorta rings, two rabbits per antagonist, antagonist 10^-5 M, 5 minutes, AII contraction, Schild. Here is the method:
The compounds of the invention were tested for antagonist activity in rabbit aortic rings. Male New Zealand white rabbits (2-2.5 kg) were sacrificed using an overdose of pentobarbital and exsanguinated via the carotid arteries. The thoracic aorta was removed, cleaned of adherent fat and connective tissue and then cut into 3-mm ring segments. The endothelium was removed from the rings by gently sliding a rolled-up piece of filter paper into the vessel lumen. The rings were then mounted in a water-jacketed tissue bath, maintained at 37° C., between moveable and fixed ends of a stainless steel wire with the moveable end attached to an FT03 Grass transducer coupled to a Model 7D Grass Polygraph for recording isometric force responses. […] The preparations were equilibrated for one hour before approximately one gram of passive tension was placed on the rings. Angiotensin II concentration-response curves were then recorded (3×10^-10 to 1×10^-5 M). Each concentration of AII was allowed to elicit its maximal contraction, and then AII was washed out repeatedly for 30 minutes before rechallenging with a higher concentration of AII. Aorta rings were exposed to the test antagonist at 10^-5 M for 5 minutes before challenging with AII. Adjacent segments of the same aorta ring were used for all concentration-response curves in the presence or absence of the test antagonist. […] The pA2 value is the concentration of the antagonist which increases the EC50 value for AII by a factor of two. Each test antagonist was evaluated in aorta rings from two rabbits.

The target in assay [2] is smooth muscle angiotensin II receptor. Kind of assay: Assay A: Angiotensin II Binding Activity. To be noted: 50% displacement of specifically bound 125I-AII; rat uterine membranes; pH 7.5; 25° C., 60 min. The method, then: Compounds of the invention were tested for ability to bind to the smooth muscle angiotensin II receptor using a rat uterine membrane preparation. […] Rat uterine membranes were prepared from fresh tissue. All procedures were carried out at 4° C. Uteri were stripped of fat and homogenized in phosphate-buffered saline at pH 7.4 containing 5 mM EDTA. The homogenate was centrifuged at 1500×g for 20 min., and the supernatant was recentrifuged at 100,000×g for 60 min. The pellet was resuspended in buffer consisting of 2 mM EDTA and 50 mM Tris-HCl (pH 7.5) to a final protein concentration of 4 mg/ml. […] The reaction was initiated by the addition of membrane protein and the mixture was incubated at 25° C. for 60 min. The incubation was terminated with ice-cold 50 mM Tris-HCl (pH 7.5) and the mixture was filtered to separate membrane-bound labelled peptide from the free ligand. The incubation tube and filter were washed with ice-cold buffer. Filters were assayed for radioactivity in a Micromedic gamma counter. Nonspecific binding was defined as binding in the presence of 10 μM of unlabelled AII. Specific binding was calculated as total binding minus nonspecific binding. […] Binding data were analyzed by a nonlinear least-squares curve fitting program.

The subject of assay [3] is pressor response to AII. Kind of assay: Assay C: In Vivo Intragastric Pressor Assay Response for AII Antagonists. Details: species or system rat (male Sprague-Dawley). To be noted: 3 mg/kg (i.g.), AII 30 ng/kg i.v. bolus; for Duration: followed to 180 minutes; for inhibition in vivo at 3 mg/kg: Rattus norvegicus, po. The method, then:
The catheters were tunneled subcutaneously to exit dorsally, posterior to the head and between the scapulae. The catheters were filled with heparin (1000 units/ml of saline). The rats were returned to their cage and allowed regular rat chow and water ad libitum. After full recovery from surgery (3-4 days), rats were placed in Lucite holders and the arterial line was connected to a pressure transducer. Arterial pressure was recorded on a Gould polygraph (mmHg). Angiotensin II was administered as a 30 ng/kg bolus via the venous catheter delivered in a 50 μl volume with a 0.2 ml saline flush. The pressor response in mm Hg was measured by the difference from pre-injection arterial pressure to the maximum pressure achieved. The AII injection was repeated every 10 minutes until three consecutive injections yielded responses within 4 mmHg of each other. These three responses were then averaged and represented the control response to AII. The test compound was suspended in 0.5% methylcellulose in water and was administered by gavage. The volume administered was 2 ml/kg body weight. The standard dose was 3 mg/kg. Angiotensin II bolus injections were given at 30, 45, 60, 75, 120, 150, and 180 minutes after gavage. The pressor response to AII was measured at each time point. The rats were then returned to their cage for future testing. A minimum of 3 days was allowed between tests. Percent inhibition was calculated for each time point following gavage by the following formula: [(Control Response-Response at time point)/Control Response]×100.

The test system of assay [4] is angiotensin II receptor. To be noted: binding experiments, functional assays and in vivo tests; literature; cited from earlier work.
The mark [5] stands for this setting: read-out: pA2 (first of two values) (converted).
[6] abbreviates: read-out: pA2 (second of two values) (converted).

Like-named read-outs stand apart in the source and are kept apart here.

As usually defined, the IC50 is the concentration that inhibits the measured activity by half. A lower IC50 goes with greater potency in that assay. The Inhibition is the share of the control response that was lost under treatment. Lower therefore signals a weak effect. For orientation: inhibition in vivo means the relative decrease from the control value, in per cent. Read a high inhibition in vivo as a response far below the control.

Turning to “5-[2-[5-[(1-butyl-3-propyl-1H-1,2,4-triazol-5-yl)methyl]-2-pyridinyl]phenyl]-1H-tetrazole [Example 3]”, in assay [1], the “pA2 (first of two values)” value is 7.46 and the “pA2 (second of two values)” value came to 7.23. Also, the IC50 in assay [2] is 150 nM. The same compound registered an Inhibition in assay [3] (conscious rats) of 10%. For the same compound, the Duration in assay [3] is 140 min.
For `CCCCc1nc(Cl)c(CC(=O)O)n1Cc1ccccc1[N+](=O)[O-]` [2-butyl-4-choloro-1-(2-nitrobenzyl)imidazole-5-acetic acid], the “angiotensin II antagonist activity” value in assay [4] was “specific competitive angiotensin II antagonist activity”.
Take `CCCCc1nc(Cl)c(CC(=O)O)n1Cc1ccccc1Cl` [2-n-butyl-4-chloro-1-(2-chlorobenzyl)imidazole-5-acetic acid]: the “angiotensin II antagonist activity” value in assay [4] is “specific competitive angiotensin II antagonist activity”.
Turning to `CCCCc1nc(Cc2ccc(-c3ccccc3-c3nnn[nH]3)nc2)n(CCCC)n1` [Example 1, 5-[2-[5-[(1,3-dibutyl-1H,1,2,4-triazol-5-yl)methyl]-2-pyridinyl]phenyl]-1H-tetrazole], the Kb was 9.33 nM in assay [1] (setting [5]) and 15.8 nM in assay [1] (setting [6]). Moreover, the half-inhibitory concentration (IC50) in assay [2] was 14 nM. This compound also displayed a Duration in assay [3] of over 180 min. In assay [3] (conscious rats), the inhibition in vivo at 3 mg/kg was 25%.
As for `CCCCn1nc(CCc2cccs2)nc1Cc1ccc(-c2ccccc2-c2nnn[nH]2)nc1` [Example 4, 5-[2-[5-[[1-butyl-3-[2-(2-thienyl)ethyl]-1H-1,2,4-triazol-5-yl]methyl]-2-pyridinyl]phenyl]-1H-tetrazole], the Kb in assay [1] (setting [5]) is 5.01 nM; in assay [1] (setting [6]), 20.4 nM. The compound also returned an IC50 in assay [2] of 13 nM. The compound further registered a Duration in assay [3] of over 180 min. Further, the inhibition in vivo at 3 mg/kg in assay [3] (conscious rats) came out at 25%.
Taken in the same sequence, the figures for `CCCCn1nc(-c2ccccc2Cl)nc1Cc1ccc(-c2ccccc2-c2nnn[nH]2)nc1` [Example 9, 5-[2-[5-[[1-butyl-3-(2-chlorophenyl)-1H-1,2,4-triazol-5-yl]methyl]-2-pyridinyl]phenyl]-1H-tetrazole] were 5.89 nM, 7.24 nM, 54 nM, over 180 min and 30%.
For `CCCCn1nc(C(O)CCC)nc1Cc1ccc(-c2ccccc2-c2nnn[nH]2)nc1` (centres unmarked) [Example 10, 5-[2-[5-[[1-butyl-3-(1-hydroxybutyl)-1H-1,2,4-triazol-5-yl]methyl]-2-pyridinyl]phenyl]-1H-tetrazole], the results for the Kb in assay [1] (setting [5]) and in assay [1] (setting [6]) were 12 nM and 27.5 nM, respectively. The concentration for half-maximal inhibition (IC50) in assay [2] came to 21 nM. In assay [3], this compound came in with a Duration of 150 min. Testing at 3 mg/kg in assay [3] (conscious rats) gave an inhibition in vivo of 10%.
For `CCCn1nc(C(F)(F)CCC)nc1Cc1ccc(-c2ccccc2-c2nnn[nH]2)nc1` [Example 20, 5-[2-[5-[[1-propyl-3-(1,1-difluorobutyl)-1H-1,2,4-triazol-5-yl]methyl]-2-pyridinyl]phenyl]-1H-tetrazole], the Kb in assay [1] (setting [5]) was 16.6 nM; in assay [1] (setting [6]), 26.3 nM. The same compound came in with a half-maximal inhibitory concentration (IC50) in assay [2] of 150 nM. Besides, the Duration in assay [3] was found to be 180 min. This compound had an inhibition in vivo at 3 mg/kg in assay [3] (conscious rats) of 15%.
In the case of `CCCCn1nc(C(F)(F)CCC)nc1Cc1ccc(-c2ccccc2-c2nnn[nH]2)nc1` [Example 21, 5-[2-[5-[[1-butyl-3-(1,1-difluorobutyl)-1H-1,2,4-triazol-5-yl]methyl]-2-pyridinyl]phenyl]-1H-tetrazole], the values for the Kb in assay [1] (setting [5]) and in assay [1] (setting [6]) were 83.2 nM and 17 nM, respectively. For the same compound, the IC50 in assay [2] amounted to 26 nM. Further, the Duration in assay [3] was over 180 min. The same compound displayed an inhibition in vivo at 3 mg/kg in assay [3] (conscious rats) of 40%.
Taken in the same sequence, the figures for `CCCCn1nc(C(=O)N(C)C(C)(C)C)nc1Cc1ccc(-c2ccccc2-c2nnn[nH]2)nc1` [Example 22, 5-[2-[5-[[1-butyl-3-(N-methyl-N-tertbutylamido)-1H-1,2,4-triazol-5-yl]methyl]-2-pyridinyl]phenyl]-1H-tetrazole] were 30.2 nM, 77.6 nM, 28 nM, 0 min and 0%.
`CCCCn1nc(C(OC)OC)nc1Cc1ccc(-c2ccccc2-c2nnn[nH]2)nc1` [Example 26, 5-[2-[5-[[1-butyl-3-dimethoxymethyl-1H-1,2,4-triazol-5-yl]methyl]-2-pyridinyl]phenyl]-1H-tetrazole] came in with an IC50 in assay [2] of 27 nM. For the same compound, the Duration in assay [3] came to 0 min. Also, at 3 mg/kg the inhibition in vivo in assay [3] (conscious rats) was 0%.
In the case of `CCCCn1nc(C(OCC)OCC)nc1Cc1ccc(-c2ccccc2-c2nnn[nH]2)nc1` [Example 27, 5-[2-[5-[[1-butyl-3-diethoxymethyl-1H-1,2,4-triazol-5-yl]methyl]-2-pyridinyl]phenyl]-1H-tetrazole], the Kb was 20.4 nM in assay [1] (setting [5]) and 28.2 nM in assay [1] (setting [6]). For the same compound, in assay [2], the IC50 was 9.8 nM. The compound further returned a Duration in assay [3] of 150 min. The compound also had an inhibition in vivo at 3 mg/kg in assay [3] (conscious rats) of 10%.
Taken in the same sequence, the figures for `CCCCn1nc(C2OCCCO2)nc1Cc1ccc(-c2ccccc2-c2nnn[nH]2)nc1` [Example 31, 5-[2-[5-[[1-butyl-3-[2-(1,3-dioxanyl)]-1H-1,2,4-triazol-5-yl]methyl]-2-pyridinyl]phenyl]-1H-tetrazole] were 27.5 nM, 70.8 nM, 20 nM, 180 min and 25%.
In the same order, the values of `CCCCn1nc(C2OCC(C)(C)CO2)nc1Cc1ccc(-c2ccccc2-c2nnn[nH]2)nc1` [Example 32, 5-[2-[5-[[1-butyl-3-[2-(5,5-dimethyl-1,3-dioxanyl)]-1H-1,2,4-triazol-5-yl]methyl]-2-pyridinyl]phenyl]-1H-tetrazole] are 20 nM, 75.9 nM, 21 nM, 180 min and 20%.
Take `CCCCc1nc(Cc2ccc(-c3ccccc3-c3nnn[nH]3)nc2)n(CC(C)(C)C)n1` [Example 35, 5-[2-[5-[(1-neopentyl-3-butyl-1H-1,2,4-triazol-5-yl)methyl]-2-pyridinyl]phenyl]-1H-tetrazole]: the Kb in assay [1] (setting [5]) is 166 nM. For the same compound, the 50% inhibitory concentration (IC50) in assay [2] is 1100 nM.
